Test results published in PubChem BioAssay (NCI).
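Tested at 5 concentrations; 48 h exposure; 96-well plates; endpoints linearly interpolated, else capped at highest concentration. TGI denotes the concentration required for complete inhibition of growth.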

Key:
Assay in all cases: inhibition of tumour cell growth, NCI panel, 48 h
[1] = tested on: 786-0 renal
[2] = tested on: A498 renal
[3] = tested on: A549 NSCLC
[4] = tested on: CAKI-1 renal
[5] = tested on: CCRF-CEM leukemia
[6] = tested on: COLO 205 colon
[7] = tested on: DLD-1 colon
[8] = tested on: DMS 114 small cell lung
[9] = tested on: DMS 273 small cell lung
[10] = tested on: EKVX NSCLC
[11] = tested on: HCC-2998 colon
[12] = tested on: HCT-116 colon
[13] = tested on: HL-60(TB) leukemia
[14] = tested on: HOP-62 NSCLC
[15] = tested on: HOP-92 NSCLC
[16] = tested on: HT29 colon
[17] = tested on: IGROV1 ovarian
[18] = tested on: K-562 leukemia
[19] = tested on: KM12 colon
[20] = tested on: LOX IMVI melanoma
[21] = tested on: LXFL 529 NSCLC
[22] = tested on: M14 melanoma
[23] = tested on: M19-MEL melanoma
[24] = tested on: MALME-3M melanoma
[25] = tested on: MOLT-4 leukemia
[26] = tested on: NCI-H226 lung
[27] = tested on: NCI-H23 lung
[28] = tested on: NCI-H522 lung
[29] = tested on: OVCAR-3 ovarian
[30] = tested on: OVCAR-4 ovarian
[31] = tested on: OVCAR-8 ovarian
[32] = tested on: RPMI-8226 leukemia
[33] = tested on: SF-268 CNS
[34] = tested on: SF-295 CNS
[35] = tested on: SF-539 CNS
[36] = tested on: SK-MEL-2 melanoma
[37] = tested on: SK-MEL-28 melanoma
[38] = tested on: SK-MEL-5 melanoma
[39] = tested on: SK-OV-3 ovarian
[40] = tested on: SN12C renal
[41] = tested on: SNB-19 CNS
[42] = tested on: SNB-75 CNS
[43] = tested on: SNB-78 CNS
[44] = tested on: SR leukemia
[45] = tested on: SW-620 colon
[46] = tested on: TK-10 renal
[47] = tested on: UACC-257 melanoma
[48] = tested on: UACC-62 melanoma
[49] = tested on: UO-31 renal
[50] = tested on: XF 498 CNS
[51] = tested on: ACHN renal
[52] = tested on: HCT-15 colon
[53] = tested on: HOP-18 NSCLC
[54] = tested on: KM20L2 colon
[55] = tested on: NCI-H460 lung
[56] = tested on: OVCAR-5 ovarian
[57] = tested on: RXF 393 renal
[58] = tested on: U251 CNS

In the case of O=C1OC(Cl)C(N=P(c2ccccc2)(c2ccccc2)c2ccccc2)=C1Cl (centres undefined), the TGI [1] is reported as > 100 µM, the TGI [2] is reported as > 100 µM and the TGI [3] is reported as > 100 µM. For the same compound, the TGI [4] was > 100 µM, the TGI [5] was > 100 µM and the TGI [6] was > 100 µM. The TGI [7] was > 100 µM, the TGI [8] was > 100 µM and the TGI [9] was > 100 µM. The TGI [10] was > 100 µM, the TGI [11] was > 100 µM and the TGI [12] was > 100 µM. For the same compound, the TGI [13] was > 100 µM, the TGI [14] was > 100 µM and the TGI [15] was > 100 µM. For the same compound, the TGI [16] was > 100 µM, the TGI [17] was > 100 µM and the TGI [18] was > 100 µM. The TGI [19] was > 100 µM, the TGI [20] was > 100 µM and the TGI [21] was > 100 µM. The TGI [22] was > 100 µM, the TGI [23] was > 100 µM and the TGI [24] was > 100 µM. For the same compound, the TGI [25] was > 100 µM, the TGI [26] was > 100 µM and the TGI [27] was > 100 µM. The TGI [28] was > 100 µM, the TGI [29] was > 100 µM and the TGI [30] was > 100 µM. The TGI [31] was > 100 µM, the TGI [32] was > 100 µM and the TGI [33] was > 100 µM. For the same compound, the TGI [34] was > 100 µM, the TGI [35] was > 100 µM and the TGI [36] was > 100 µM. For the same compound, the TGI [37] was > 100 µM, the TGI [38] was > 100 µM and the TGI [39] was > 100 µM. For the same compound, the TGI [40] was > 100 µM, the TGI [41] was > 100 µM and the TGI [42] was 85.4 µM. For the same compound, the TGI [43] was > 100 µM, the TGI [44] was > 100 µM and the TGI [45] was > 100 µM. For the same compound, the TGI [46] was > 100 µM, the TGI [47] was > 100 µM and the TGI [48] was > 100 µM. The TGI [49] was > 100 µM and the TGI [50] was > 100 µM.
In the case of COc1ccc(-c2onc(-c3ccc([N+](=O)[O-])cc3)c2C2=NCCCN2)cc1, the TGI [1] is reported as > 100 µM, the TGI [3] is reported as > 100 µM and the TGI [51] is reported as > 100 µM. The TGI [4] was > 100 µM, the TGI [5] was > 100 µM and the TGI [6] was > 100 µM. For the same compound, the TGI [7] was > 100 µM, the TGI [10] was > 100 µM and the TGI [11] was > 100 µM. For the same compound, the TGI [12] was > 100 µM, the TGI [52] was > 100 µM and the TGI [13] was > 100 µM. The TGI [53] was > 100 µM, the TGI [14] was > 100 µM and the TGI [16] was > 100 µM. For the same compound, the TGI [17] was > 100 µM, the TGI [18] was > 100 µM and the TGI [19] was > 100 µM. For the same compound, the TGI [54] was > 100 µM, the TGI [20] was > 100 µM and the TGI [21] was > 100 µM. The TGI [22] was > 100 µM, the TGI [23] was > 100 µM and the TGI [24] was > 100 µM. For the same compound, the TGI [25] was > 100 µM, the TGI [26] was > 100 µM and the TGI [27] was > 100 µM. The TGI [55] was > 100 µM, the TGI [28] was > 100 µM and the TGI [29] was 85.5 µM. The TGI [30] was > 100 µM, the TGI [56] was > 100 µM and the TGI [31] was > 100 µM. For the same compound, the TGI [32] was > 100 µM, the TGI [57] was > 100 µM and the TGI [33] was > 100 µM. For the same compound, the TGI [34] was > 100 µM, the TGI [35] was > 100 µM and the TGI [36] was > 100 µM. The TGI [37] was > 100 µM, the TGI [38] was > 100 µM and the TGI [40] was > 100 µM. For the same compound, the TGI [41] was > 100 µM, the TGI [42] was > 100 µM and the TGI [43] was > 100 µM. The TGI [44] was > 100 µM, the TGI [45] was > 100 µM and the TGI [58] was > 100 µM. The TGI [47] was > 100 µM, the TGI [48] was > 100 µM and the TGI [49] was > 100 µM. For the same compound, the TGI [50] was > 100 µM.
In the case of CC(C)OP(=O)(OC(C)C)/C(F)=N/Nc1ccc([N+](=O)[O-])cc1, the TGI [2] is reported as > 100 µM, the TGI [3] is reported as > 100 µM and the TGI [51] is reported as > 100 µM. The TGI [4] was > 100 µM, the TGI [5] was > 100 µM and the TGI [6] was > 100 µM. The TGI [7] was > 100 µM, the TGI [8] was > 100 µM and the TGI [9] was > 100 µM. The TGI [10] was > 100 µM, the TGI [11] was > 100 µM and the TGI [12] was > 100 µM. For the same compound, the TGI [52] was > 100 µM, the TGI [13] was > 100 µM and the TGI [14] was > 100 µM. The TGI [15] was > 100 µM, the TGI [16] was > 100 µM and the TGI [17] was > 100 µM. For the same compound, the TGI [18] was > 100 µM, the TGI [19] was > 100 µM and the TGI [54] was > 100 µM. For the same compound, the TGI [21] was > 100 µM, the TGI [22] was > 100 µM and the TGI [23] was > 100 µM. For the same compound, the TGI [24] was > 100 µM, the TGI [25] was > 100 µM and the TGI [27] was > 100 µM. For the same compound, the TGI [55] was > 100 µM, the TGI [28] was > 100 µM and the TGI [29] was > 100 µM. For the same compound, the TGI [30] was > 100 µM, the TGI [56] was > 100 µM and the TGI [31] was > 100 µM. The TGI [32] was > 100 µM, the TGI [33] was > 100 µM and the TGI [34] was > 100 µM. For the same compound, the TGI [35] was > 100 µM, the TGI [36] was > 100 µM and the TGI [37] was > 100 µM. For the same compound, the TGI [38] was > 100 µM, the TGI [39] was > 100 µM and the TGI [40] was > 100 µM. The TGI [41] was > 100 µM, the TGI [42] was > 100 µM and the TGI [44] was > 100 µM. For the same compound, the TGI [45] was > 100 µM, the TGI [46] was > 100 µM and the TGI [58] was > 100 µM. The TGI [47] was > 100 µM, the TGI [48] was > 100 µM and the TGI [49] was > 100 µM. The TGI [50] was > 100 µM.
